Data taken from patent publication US10654867B2 (Genentech, Inc., priority 2016, dated 2020).

The molecules below were run against T1, estrogen receptor alpha (ESR1) in MCF7 breast cancer cells (Homo sapiens, UniProt P03372) (assay: Breast Cancer Cell ERa High Content Fluorescence Imaging Degradation Assay (ER-alpha MCF7 HCS)). Conditions: 4 hours, plateau of the maximal effect, DMSO and fulvestrant define 0% and 100% change in ESR1, Table 1a.
T1 sequence (P03372 1-595): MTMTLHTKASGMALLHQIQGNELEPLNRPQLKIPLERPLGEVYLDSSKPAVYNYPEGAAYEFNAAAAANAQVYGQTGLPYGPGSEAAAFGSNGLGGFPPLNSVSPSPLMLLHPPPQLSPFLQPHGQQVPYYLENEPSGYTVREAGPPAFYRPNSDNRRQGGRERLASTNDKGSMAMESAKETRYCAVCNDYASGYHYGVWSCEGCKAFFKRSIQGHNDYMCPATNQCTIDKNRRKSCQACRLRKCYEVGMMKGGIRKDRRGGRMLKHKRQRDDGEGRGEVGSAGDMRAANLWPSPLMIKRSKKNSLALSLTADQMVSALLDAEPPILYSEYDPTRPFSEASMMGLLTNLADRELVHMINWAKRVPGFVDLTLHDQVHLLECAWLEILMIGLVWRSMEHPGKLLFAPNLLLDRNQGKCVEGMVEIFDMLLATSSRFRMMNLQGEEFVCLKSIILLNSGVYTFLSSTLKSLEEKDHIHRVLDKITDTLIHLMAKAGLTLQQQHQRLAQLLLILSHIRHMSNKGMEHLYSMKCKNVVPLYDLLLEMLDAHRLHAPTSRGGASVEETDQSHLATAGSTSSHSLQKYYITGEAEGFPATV
Format: cell-based
Parameters: endogenous in cells; host or cells: MCF7 breast cancer cells; key to ERalpha (WT) MCF7HCS (Sinf): % change in ERα level; DMSO = 0%, fulvestrant = 100% change
Protocol: All of the exemplary Formula I, II, and III compounds in Tables 1a and 1b were made and characterized by LCMS [M+H]^+ (liquid chromatography mass spectroscopy) with detection of parent ion. All of the exemplary Formula I, II, and III compounds in Tables 1a and 1b were tested for binding to ERa (Estrogen Receptor alpha) and biological activity according to the assays, protocols, and procedures of Examples 901-907. ER-alpha MCF7 HCS Sinf (%) values in Tables 1a and 1b were measured by the Breast Cancer Cell ERa High Content Fluorescence Imaging Degradation Assay of Example 901. ER-alpha MCF7 HCS EC50 (μM) values in Tables 1a and 1b were measured by the in vitro cell proliferation assays described in Examples 902 and 903. The rat uterine wet weight assays of Examples 906 and 907 allow rapid determination of compound antagonist activity in an ER responsive tissue (immature rat uterus) while competing against the native ER ligand estradiol, i.e. antagonist mode (Ashby, J.; et al (1997) Regulatory toxicology and pharmacology: RTP, 25 (3):226-31). Exemplary Formula I, II, and III compounds in Tables 1a and 1b have the following structures, corresponding names (ChemBioDraw, Version 12.0.2, CambridgeSoft Corp., Cambridge Mass.), and biological activity. Where more than one name is associated with a Formula I, II, and III compound or intermediate, the chemical structure shall define the compound.
MCF7 breast cancer cells were seeded on day 1 at a density of 10,000 cells per well in 384 well poly-lysine coated tissue culture plate (Greiner # T-3101-4), in 50 μL/well RPMI (phenol red free), 10% FBS (Charcoal stripped), containing L-glutamine. On day 2, compounds were prepared at 2 compound source concentrations: 100 μM and 1 μM (ultimately to give 2 overlapping titration curves), in a Labcyte low dead volume plate, 10 μL/well, and 10 μL of DMSO in designated wells for backfill, and 5 μM Fulvestrant (control compound) in designated wells. Compounds and controls were dispensed using a Labcyte Echo acoustic dispenser to dispense compounds with a predefined serial dilution (1.8×, 10 point, in duplicate) and appropriate backfill and control compounds (final total volume transferred was 417.5 nL and compound dispense volume ranges from 2.5 nL to 417.5 nL; 0.84% DMSO (v/v) final), ultimately producing a concentration range from 0.05 nM to 835 nM. Cell plates were incubated at 37° C., for 4 hours. Fixation and permeabilization were carried out using a Biotek EL406 plate washer and dispenser as follows. Cells were fixed by addition of 15 μL of 16% paraformaldehyde (Electron Microscopy Sciences #15710-S) directly to the 50 μL cell culture medium in each well using the peristaltic pump 5 μL cassette on a Biotek EL406 (final concentration of formaldehyde was 3.7% w/v). Samples were incubated 30 minutes. Well contents was aspirated and 50 μL/well of Phosphate Buffered Saline (PBS) containing 0.5% w/v bovine serum albumen, 0.5% v/v Triton X-100 (Antibody Dilution Buffer) was added to each well. Samples were incubated for 30 minutes. Well contents were aspirated and washed 3 times with 100 μL/well of PBS. Immunofluorescence staining of estrogen receptor alpha (ESR1) was carried out using a Biotek EL406 plate washer and dispenser as follows. The well supernatant was aspirated from the wells and 25 μL/well of anti-ESR1 mAb (F10) (Santa Cruz sc-8002) diluted 1:1000 in Antibody Dilution Buffer was dispensed. Samples were incubated for 2 hours at room temperature. Samples were washed 4 times with 100 μL/well of PBS. 25 uL (microliters)/well of secondary antibody solution (Alexafluor 488 conjugate anti-mouse IgG (LifeTechnologies # A21202) diluted 1:1000 and Hoechst 33342 1 μg/ml diluted in Antibody Dilution Buffer) were dispensed into each well. Samples were incubated for 2 hours at room temperature. Samples were washed 3 times with 100 μL/well of PBS using a Biotek EL406. Quantitative fluorescence imaging of ESR1 was carried out using a Cellomics Arrayscan V (Thermo). […]
In the case of `C[C@H]1CCN(CC(C)(C)F)[C@@H](c2c(F)cc(OCCN3CC(CF)C3)cc2F)c2[nH]c3ccccc3c21` [Example 124, (1S,5S)-1-(2,6-difluoro-4-(2-(3-(fluoromethyl)azetidin-1-yl)ethoxy)phenyl)-2-(2-fluoro-2-methylpropyl)-5-methyl-1,2,3,4,5,10-hexahydroazepino[3,4-b]indole], the “ER-alpha MCF7HCS Sinf” value is reported as −75%.
For `C[C@@H]1Cc2[nH]c3ccccc3c2[C@@H](c2c(F)cc(OCCN3CC(CF)C3)cc2F)N1CC(C)(C)F` [Example 137, (1S,3R)-1-(2,6-difluoro-4-(2-(3-(fluoromethyl)azetidin-1-yl)ethoxy)phenyl)-2-(2-fluoro-2-methylpropyl)-3-methyl-2,3,4,5-tetrahydro-1H-pyrido[4,3-b]indole], the “ER-alpha MCF7HCS Sinf” value was −94.2%.
`C[C@@H]1CCN(CC(C)(C)F)[C@H](c2c(F)cc(OCCN3CC(CF)C3)cc2F)c2[nH]c3ccccc3c21` [Example 123, (1R,5R)-1-(2,6-difluoro-4-(2-(3-(fluoromethyl)azetidin-1-yl)ethoxy)phenyl)-2-(2-fluoro-2-methylpropyl)-5-methyl-1,2,3,4,5,10-hexahydroazepino[3,4-b]indole] was tested, and the “ER-alpha MCF7HCS Sinf” value was −96.9%.
In the case of `CC1(C)CN(CC(F)(F)CO)[C@H](c2c(F)cc(NC3CN(CCCF)C3)cc2F)c2[nH]c3ccccc3c21` [Example 142, (R)-3-(1-(2,6-difluoro-4-(1-(3-fluoropropyl)azetidin-3-ylamino)phenyl)-4,4-dimethyl-3,4-dihydro-1H-pyrido[3,4-b]indol-2(9H)-yl)-2,2-difluoropropan-1-ol], the “ER-alpha MCF7HCS Sinf” value is reported as −96%.
For `C[C@@H]1Cn2c(cc3ccccc32)[C@@H](c2c(F)cc(OC3CN(CCCF)C3)cc2F)N1CC(F)(F)F` [Example 141, (1R,3R)-1-(2,6-difluoro-4-((1-(3-fluoropropyl)azetidin-3-yl)oxy)phenyl)-3-methyl-2-(2,2,2-trifluoroethyl)-1,2,3,4-tetrahydropyrazino[1,2-a]indole], the “ER-alpha MCF7HCS Sinf” value was −103%.
With `C[C@@H]1CCN(CC(C)(C)F)[C@@H](c2c(F)cc(OCCN3CC(CF)C3)cc2F)c2[nH]c3ccccc3c21` [Example 126, (1S,5R)-1-(2,6-difluoro-4-(2-(3-(fluoromethyl)azetidin-1-yl)ethoxy)phenyl)-2-(2-fluoro-2-methylpropyl)-5-methyl-1,2,3,4,5,10-hexahydroazepino[3,4-b]indole] the “ER-alpha MCF7HCS Sinf” value was −50%.
`C[C@@H]1Cn2c(cc3ccccc32)[C@@H](c2c(F)cc(NC3CN(CCCF)C3)cc2F)N1CC(F)(F)F` [Example 146, N-(3,5-Difluoro-4-((1R,3R)-3-methyl-2-(2,2,2-trifluoroethyl)-1,2,3,4-tetrahydropyrazino[1,2-a]indol-1-yl)phenyl)-1-(3-fluoropropyl)azetidin-3-amine] was tested, and the “ER-alpha MCF7HCS Sinf” value was −100%.
In the case of `C[C@@H]1Cc2c([nH]c3ccccc23)[C@]2(CCc3nc(OCCN4CC(CF)C4)ccc32)N1CC(F)(F)F` [Example 134, (3′R,5R)-2-(2-(3-(fluoromethyl)azetidin-1-yl)ethoxy)-3′-methyl-2′-(2,2,2-trifluoroethyl)-2′,3′,4′,6,7,9′-hexahydrospiro [cyclopenta[b]pyridine-5,1′-pyrido [3,4-b]indole]], the “ER-alpha MCF7HCS Sinf” value is reported as −96.5%.
With `C[C@H]1Cc2[nH]c3ccccc3c2[C@H](c2c(F)cc(OCCN3CC(CF)C3)cc2F)N1CC(C)(C)F` (single isomer, unassigned) [Example 136] the “ER-alpha MCF7HCS Sinf” value was −51%.

Same assay, conditions: 4 hours, plateau of the maximal effect, DMSO and fulvestrant define 0% and 100% change in ESR1, Table 1b
With `C[C@H]1Cc2oc3ccccc3c2[C@H](c2c(F)cc(OCCN3CC(CF)C3)cc2F)N1CC(C)(C)F` (stereo in doubt) [Example 168, 1-(2,6-difluoro-4-(2-(3-(fluoromethyl)azetidin-1-yl)ethoxy)phenyl)-2-(2-fluoro-2-methylpropyl)-3-methyl-1,2,3,4-tetrahydrobenzofuro [3,2-c]pyridine] the “ERalpha (WT) MCF7HCS (Sinf)” value was −97.
